US20140363379A1, “NUTRITIONAL APPROACH TO THE USE OF ERGOTHIONEINE AND VITAMIN D2 FOR HAIR, NAIL AND SKIN GROWTH” (ENTIA BIOSCIENCES, INC., priority 2011, published 2014)

Tests used:
[1] = humans, after mushroom consumption (0 g, 8 g, 16 g doses); cited from earlier work
[2] = test system: glutathione; assay: Glutathione levels in plasma, cortex and midbrain of Parkinson's model mice, by glutathione assay; type: in vivo, mouse; settings: compared with knockout mice
Experimental: Matched cohorts of SNCA transgenic mouse model of PD were used to measure the therapeutic efficacy of ErgoD2™ to control movement disorder, improve grip strength, and lower alpha-synuclein in the cortex and/or midbrain of the PD animals. Additionally, alpha-synuclein was measured in the plasma, and glutathione was measured in the plasma, cortex and midbrain. IL-6 measurements and an immunohistochemistry study will also be performed on intestinal tissues to see if there are pathologic variances in intestinal function between cohorts, which could be associated with disease onset and progression.
Concentrations of glutathione present in midbrain homogenates (nM), as measured by glutathione assay.
Concentrations of glutathione present in cortex homogenates (nM), as measured by glutathione assay. Error bars represent±standard error. Glutathione is a major protective antioxidant in animal cells. It is present most abundantly in its reduced form (GSH) in healthy cells. The levels of GSH and glutathione disulfide (GSSG), the oxidized form, are used as indicators of oxidative stress and overall cell health. One of the well-established markers of PD is a decrease in glutathione levels in the substantia nigra (SN). This decrease is specific to the SN and is not observed in other sections of the PD brain.

[3] = test system: insulin resistance; settings: cited from earlier work

In the case of `C[N+](C)(C)[C@@H](Cc1c[nH]c(=S)[nH]1)C(=O)[O-]` [L-Ergothioneine], the “time of peak of ET in red blood cells (RBC)” value [1] is listed as 2 h.
With `CC(=O)N[C@@H](CS)C(=O)O` [NAC, n-acetyl cysteine] the “cortex glutathione concentration, treated transgenic versus knockout mice” value [2] was “no significant differences”.
In the case of vitamin D, the “improvement of insulin resistance” value ([3]; bringing 25(OH)D levels above 80 nmol/L) is given as 12% and the “improvement in insulin sensitivity” value ([3]; increasing vitamin D levels from 25 to 75 nmol/L) is given as 60%.
